Reference: ChEMBL document CHEMBL1153952, “Selective, potent PPARgamma agonists with cyclopentenone core structure” (Bioorg Med Chem Lett, 2009)

Assays:
[1] = target: T1, Peroxisome proliferator-activated receptor alpha (Homo sapiens, UniProt Q07869); assay: Agonist activity at PPARalpha ligand binding domain expressed in human HeLa cells co-transfected with Gal4-DBD assessed as transcriptional activation by Gal4 response element-driven luciferase reporter gene assay; type: cell-based
T1 sequence (Q07869 whole entry): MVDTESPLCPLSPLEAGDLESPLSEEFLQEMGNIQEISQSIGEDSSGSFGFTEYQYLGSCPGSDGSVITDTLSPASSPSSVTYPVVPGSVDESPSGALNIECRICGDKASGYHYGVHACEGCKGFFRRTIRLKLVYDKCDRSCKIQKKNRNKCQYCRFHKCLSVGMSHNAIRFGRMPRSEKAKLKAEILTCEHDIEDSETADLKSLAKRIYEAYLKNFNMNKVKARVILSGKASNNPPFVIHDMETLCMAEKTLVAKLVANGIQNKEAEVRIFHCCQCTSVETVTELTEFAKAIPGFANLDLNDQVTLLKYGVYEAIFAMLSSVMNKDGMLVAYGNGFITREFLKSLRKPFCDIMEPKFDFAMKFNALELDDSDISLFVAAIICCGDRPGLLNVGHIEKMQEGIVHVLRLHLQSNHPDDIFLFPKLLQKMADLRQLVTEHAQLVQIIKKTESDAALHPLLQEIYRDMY

[2] = target: T2, Peroxisome proliferator-activated receptor gamma (Homo sapiens, UniProt P37231); type: cell-based, HeLa
T2 sequence (P37231 whole entry): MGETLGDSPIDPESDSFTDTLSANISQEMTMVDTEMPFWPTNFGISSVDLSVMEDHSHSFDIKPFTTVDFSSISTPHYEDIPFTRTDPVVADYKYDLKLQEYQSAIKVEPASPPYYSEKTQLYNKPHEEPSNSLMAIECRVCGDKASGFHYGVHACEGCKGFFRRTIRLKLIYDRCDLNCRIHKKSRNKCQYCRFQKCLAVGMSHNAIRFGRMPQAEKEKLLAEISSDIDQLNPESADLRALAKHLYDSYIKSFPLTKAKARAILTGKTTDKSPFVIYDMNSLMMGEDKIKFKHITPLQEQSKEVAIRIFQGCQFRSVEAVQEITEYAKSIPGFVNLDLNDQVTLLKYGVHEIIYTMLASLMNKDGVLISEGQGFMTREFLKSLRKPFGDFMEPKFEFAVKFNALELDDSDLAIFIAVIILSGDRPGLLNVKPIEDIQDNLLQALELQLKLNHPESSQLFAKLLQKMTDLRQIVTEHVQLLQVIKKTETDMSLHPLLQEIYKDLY

[3] = target: T3, Peroxisome proliferator-activated receptor delta (Homo sapiens, UniProt Q03181)
T3 sequence (Q03181 whole entry): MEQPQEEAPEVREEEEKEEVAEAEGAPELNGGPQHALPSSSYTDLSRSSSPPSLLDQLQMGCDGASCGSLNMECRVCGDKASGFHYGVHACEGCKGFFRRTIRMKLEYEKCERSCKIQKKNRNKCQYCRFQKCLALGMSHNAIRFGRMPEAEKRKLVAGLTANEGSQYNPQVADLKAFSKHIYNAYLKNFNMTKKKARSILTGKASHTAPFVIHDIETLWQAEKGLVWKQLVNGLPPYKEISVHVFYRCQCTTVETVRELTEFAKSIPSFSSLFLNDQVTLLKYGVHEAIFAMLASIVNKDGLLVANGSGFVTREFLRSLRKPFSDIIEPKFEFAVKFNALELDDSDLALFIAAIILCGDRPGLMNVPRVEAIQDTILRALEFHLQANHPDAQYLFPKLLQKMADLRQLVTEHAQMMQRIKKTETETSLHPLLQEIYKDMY

EC50 [1]	EC50 [2]	EC50 [3]	Compound
1000 nM	4000 nM	> 10000 nM	CCCCCCC[C@H]1C(=O)C=C[C@@H]1OCCCCCC(=O)O
–	2000 nM	2000 nM	CCCCCCC[C@H]1C(=O)C=C[C@H]1OCCCCCC(=O)O
500 nM	8000 nM	2000 nM	CCCCCCC#CC1=CC(=O)[C@H](CCCCCCC)[C@H]1OCCCCCC(=O)O (relative stereo)
500 nM	4000 nM	> 10000 nM	CCCCCCC#CC1=CC(=O)[C@H](CCCCCCC)[C@@H]1OCCCCCC(=O)O (relative stereo)

Compound	EC50 [1]	EC50 [2]	EC50 [3]
CCCCCCC[C@H]1C(=O)C=C(I)[C@@H]1OCCCCCC(=O)O (relative stereo)	1000 nM	30 nM	500 nM
CCCCCCC[C@H]1C(=O)C=C(I)[C@H]1OCCCCCC(=O)O (relative stereo)	> 10000 nM	60 nM	> 10000 nM
CCCCCCCN(CCc1ccc(SC(C)(C)C(=O)O)cc1)C(=O)Nc1ccc(F)cc1F [GSK-9578]	–	–	1000 nM
